The results in this text go back to US9637484B2, “Cycloalkyl acid derivative, preparation method thereof, and pharmaceutical application thereof” (Shanghai Hengrui Pharmaceutical Co., Ltd., priority 2013, dated 2017).

For one data set, the target named is hURAT1 (Homo sapiens (Human), UniProt Q96S37). The experiment in a line: Assay for inhibiting URAT1: uptake of 14C-uric acid in HEK293/hURAT1 cells. Format: cell-based. To be noted: 14C-uric acid 11.57 μM, 12 minutes at room temperature. The protocol:
In vitro URAT1 assay can be used to identify compounds having potential activity for decreasing serum uric acid. In a suitable test, the vectors that encode human URAT1 (URAT1 cDNA: Guangzhou Copoeia EX-T4563-M02) were used to transfect cells (human embryonic kidney cells, HEK293: Cell Bank of the Chinese Academy of Sciences, GNHu18). The transfected cells—HEK293/hURAT1 cells—were obtained, then their uptake ability of radiolabeled uric acid was determined. The activity of the compounds as URAT1 inhibitors can be evaluated by the ability of the compounds to block the uptake of uric acid in the transfected cells.
The HEK293/hURAT1 cells in Eagle's minimal essential medium (EMEM) were inoculated in a 48-well plate that was coated with poly-D-lysine (Becton Dickinson, Catalog No. 356509), with an inoculation density of 10^5 cells/well, and incubated overnight. A reaction solution containing ^14C— uric acid (American Radioactive Compound, Catalog No. ARC 0513A) with a final concentration of 11.57 μM was prepared by the use or non-use of the test compounds in Hanks balanced salt solution (HBSS). The Hanks balanced salt solution (HBSS) contained 125 mM sodium gluconate, 4.8 mM potassium gluconate, 1.2 mM potassium dihydrogen phosphate, 1.2 mM magnesium sulfate, 1.3 mM calcium gluconate, 5.6 mM glucose and 25 mM HEPES (pH 7.3). After the medium was washed with the wash buffer (125 mM sodium gluconate, 10 mM HEPES, pH 7.3) for one time, the reaction solution prepared from the above step was added to each well and incubated at room temperature for 12 minutes. Then the reaction solution was removed, the cells were washed twice with the wash buffer and lysed with 0.2 M NaOH for 5 minutes. The cell lysate was transferred to a 96-well culture plate with a scintillation fluid (PerkinElmer, Catalog No. 1450-401), and counting of radioactivity was carried out on a Microbeta counter (PerkinElmer).
The test compounds were dissolved in DMSO, then DMSO with the same concentration was added to HEK293/hURAT1 cell wells without the test compounds. Cellular uptake of uric acid under various test conditions was expressed as average percentage inhibition rates in comparison to DMSO control. Radioactive values from the wells containing DMSO were considered as 100% uptake of the cells. IC50 values were calculated from the data of the inhibition rates at various concentrations.
The above assay was used to determine the biochemical activity of the compounds of the present invention for inhibiting hURAT1.

Data set [1] can be described thus: Pharmacokinetics assay in SD rats, intragastric administration, plasma by LC/MS/MS. Format: in vivo, Sprague-Dawley (SD) rats. The following applies: 3.0 mg/kg; for Vd/F / AUC / CL/F / half-life / Cmax / MRT: both sexes, Sprague-Dawley, rat, plasma, po; for Vd/F: read-out: Apparent Distribution Volume Vz/F; for AUC: read-out: Area Under Curve AUC; for CL/F: read-out: Clearance CL/F; for half-life: read-out: Half-Life T½ (converted); for Cmax: read-out: Plasma Conc. Cmax; for MRT: read-out: Mean Residence Time MRT. The protocol: Sprague-Dawley (SD) rats were used as test animals. The compounds of Example 1, Example 2 and Example 3 were administered intragastrically to rats to determine the drug concentration in plasma at different time points by a LC/MS/MS method. The pharmacokinetic behavior of the compounds of the present invention was studied and evaluated in rats.
12 Healthy adult SD rats, half male and half female, purchased from SINO-BRITSH SIPPR/BK LAB. ANIMAL LTD., CO, Certificate No.: SCXK (Shanghai) 2008-0016, were divided into three groups, with 4 rats in each group.
The appropriate amounts of test compounds were weighed and mixed with 0.5% CMC-Na to prepare a 0.3 mg/mL suspension by an ultrasonic method.
After an overnight fast, 12 SD rats, half male and half female, were divided into 3 groups, with 4 rats in each group, and administered the compounds intragastrically at a dose of 3.0 mg/kg and an administration volume of 10 mL/kg.
Blood samples (0.1 mL) were taken from the orbital sinus before administration, and at 0.5 h, 1 h, 2 h, 4 h, 6 h, 8 h, 11 h, 24 h and 48 h after administration, stored in heparinized tubes, and centrifuged for 10 minutes at 3,500 rpm to separate blood plasma. The plasma samples were stored at −20° C.
The concentration of the test compounds in rat plasma after intragastrically administering the test compounds was analyzed by a LC-MS/MS method. The linearity range of the method is 2.0-5000 ng/ml, and the lower limit of quantification is 2.00 ng/ml. Plasma samples were analyzed after protein precipitation.

hURAT1, sequence (Q96S37 whole entry): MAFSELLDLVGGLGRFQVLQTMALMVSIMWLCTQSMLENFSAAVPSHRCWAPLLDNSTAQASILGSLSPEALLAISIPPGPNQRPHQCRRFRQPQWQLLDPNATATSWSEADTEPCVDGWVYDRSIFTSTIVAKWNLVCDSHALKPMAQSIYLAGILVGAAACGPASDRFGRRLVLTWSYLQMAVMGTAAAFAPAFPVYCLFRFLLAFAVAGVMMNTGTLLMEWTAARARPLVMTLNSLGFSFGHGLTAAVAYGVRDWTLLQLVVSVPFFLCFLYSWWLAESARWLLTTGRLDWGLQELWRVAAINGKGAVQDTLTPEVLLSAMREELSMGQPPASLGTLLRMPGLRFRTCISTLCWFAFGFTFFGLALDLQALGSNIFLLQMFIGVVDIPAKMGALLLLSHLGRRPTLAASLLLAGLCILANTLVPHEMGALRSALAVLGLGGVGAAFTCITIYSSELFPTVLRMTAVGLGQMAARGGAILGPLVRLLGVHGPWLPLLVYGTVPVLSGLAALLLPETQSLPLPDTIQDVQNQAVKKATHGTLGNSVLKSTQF

As to `COCCOc1ccc2nccc(SC3(C(=O)O)CCC3)c2c1` [Example 5, 1-((6-(2-methoxyethoxy)quinolin-4-yl)thio)cyclobutanecarboxylic acid], on hURAT1, the midpoint of inhibition, the IC50, lay at 207 nM.
Turning to `O=C(O)C1(Sc2ccnc3ccc(C(F)(F)F)cc23)CCC1` [Example 2, 1-((6-(trifluoromethyl)quinolin-4-yl)thio)cyclobutanecarboxylic acid], the IC50 (as a rule, the midpoint of a concentration-inhibition curve) against hURAT1 turned out to be 61 nM. Besides, in data set [1], the “Mean Residence Time MRT” value was 12.9 ± 5.8 h; the Vd/F is 1.21 ± 0.674 L/kg; the AUC (commonly the area under the concentration-time curve, a measure of exposure) came out at 38200 ± 25100 ng·h/mL; the CL/F turned out to be 1.95 ± 1.31 mL/min/kg. Further, in data set [1], the half-life (commonly the time needed for the level to fall by half in the phase considered) was 530 ± 242 min and the Cmax (as a rule, the maximum level reached in the sampled fluid or tissue) was found to be 2710 ± 919 ng/mL.
Turning to `O=C(O)C1(Sc2ccnc3ccc(Br)cc23)CC1` [Example 33, 1-((6-bromoquinolin-4-yl)thio)cyclopropanecarboxylic acid], on hURAT1, the IC50 amounted to 324 nM.
As to `O=C(O)C1(Sc2ccnc3cc(Br)ccc23)CCC1` [Example 31, 1-((7-bromoquinolin-4-yl)thio)cyclobutanecarboxylic acid], inhibition against hURAT1 was half-maximal at 129 nM (IC50).
Still for that read-out and setting: as for `Cc1ccc2nccc(SC3(C(=O)O)CCC3)c2c1` [Example 30, 1-((6-methylquinolin-4-yl)thio)cyclobutanecarboxylic acid], the figure is 343 nM.
In turn, `O=C(O)C1(Sc2ccnc3ccccc23)CCC1` [Example 1, 1-(quinolin-4-ylthio)cyclobutanecarboxylic acid] returned an IC50 on hURAT1 of 251 nM. In data set [1], the Vd/F was determined as 0.652 ± 0.333 L/kg, the exposure (AUC) amounted to 20700 ± 5270 ng·h/mL, the CL/F came to 2.54 ± 0.68 mL/min/kg and the half-life is 170 ± 39 min. Also, in data set [1], the MRT (as a rule, a mean duration of stay, worked out from the concentration-time curve) amounted to 3.15 ± 0.82 h and the Cmax worked out at 8800 ± 1760 ng/mL.
In turn, `O=C(O)C1(Sc2ccnc3ccc(Br)cc23)CCC1` [Example 3, 1-((6-bromoquinolin-4-yl)thio)cyclobutanecarboxylic acid] returned a concentration for half-maximal inhibition (IC50) against hURAT1 of 19 nM. For the same molecule, in data set [1], the Vd/F worked out at 0.878 ± 0.335 L/kg, the AUC came to 28400 ± 8540 ng·h/mL, the CL/F is 1.89 ± 0.59 mL/min/kg and the half-life was 321 ± 67.2 min. In data set [1], the MRT worked out at 8.15 ± 1.3 h and the Cmax was 3470 ± 854 ng/mL.
As to `N#Cc1ccc2nccc(SC3(C(=O)O)CCC3)c2c1` [Example 17, 1-((6-cyanoquinolin-4-yl)thio)cyclobutanecarboxylic acid], half-maximal inhibition against hURAT1 (IC50) required 398 nM.
Consider `N#CCOc1ccc2nccc(SC3(C(=O)O)CCC3)c2c1` [Example 24, 1-((6-(cyanomethoxy)quinolin-4-yl)thio)cyclobutanecarboxylic acid], for which the IC50 on hURAT1 was determined as 680 nM.
On the same count and under the same terms, as for `O=C(O)C1(Sc2ccnc3ccc(-c4cccc(C(F)(F)F)c4)cc23)CCC1` [Example 8, 1-((6-(3-(trifluoromethyl)phenyl)quinolin-4-yl)thio)cyclobutanecarboxylic acid], the figure is 359 nM; as for `O=C(O)C1(Sc2ccnc3ccc(-c4cccc(F)c4)cc23)CCC1` [Example 6, 1-((6-(3-fluorophenyl)quinolin-4-yl)thio)cyclobutanecarboxylic acid], 332 nM; as for `N#Cc1ccc(SC2(C(=O)O)CCC2)c2ccccc12` [Example 10, 1-((4-cyanonaphthalen-1-yl)thio)cyclobutanecarboxylic acid], 926 nM.
Same read-out and setting: as for `O=C(O)C1(Sc2ccnc3ccc(Br)cc23)CCCC1` [Example 32, 1-((6-bromoquinolin-4-yl)thio)cyclopentanecarboxylic acid], the figure is 352 nM; as for `O=C(O)C1(Sc2ccnc3ccc(C4CC4)cc23)CCC1` [Example 23, 1-((6-cyclopropylquinolin-4-yl)thio)cyclobutanecarboxylic acid], 658 nM; as for `O=C(O)C1(Sc2ccnc3ccc(F)cc23)CCC1` [Example 12, 1-((6-fluoroquinolin-4-yl)thio)cyclobutanecarboxylic acid], 557 nM.
Still for that read-out and setting: for `COc1ccc2nccc(SC3(C(=O)O)CCC3)c2c1` [Example 4, 1-((6-methoxyquinolin-4-yl)thio)cyclobutanecarboxylic acid] the value was 343 nM; for `O=C(O)C1(Sc2ccnc3ccc(-c4ccccc4C(F)(F)F)cc23)CCC1` [Example 22, 1-((6-(2-(trifluoromethyl)phenyl)quinolin-4-yl)thio)cyclobutanecarboxylic acid], 115 nM.
With `COC(=O)COc1ccc2nccc(SC3(C(=O)O)CCC3)c2c1` [Example 13, 1-((6-(2-methoxy-2-oxoethoxy)quinolin-4-yl)thio)cyclobutanecarboxylic acid], the IC50 on hURAT1 came to 164 nM.
On the same count and under the same terms, for `COCc1ccc2nccc(SC3(C(=O)O)CCC3)c2c1` [Example 9, 1-((6-(methoxymethyl)quinolin-4-yl)thio)cyclobutanecarboxylic acid] the value was 197 nM; for `O=C(O)C1(Sc2ccnc3ccc(-c4ccc(F)cc4)cc23)CCC1` [Example 7, 1-((6-(4-fluorophenyl)quinolin-4-yl)thio)cyclobutanecarboxylic acid], 159 nM.
